Patent US20120309796A1, “BENZOCYCLOHEPTENE ACETIC ACIDS” (priority 2011, published 2012)

What was measured:
[1] = molecular target: T1, human CRTH2 (Homo sapiens, UniProt Q9Y5Y4); experiment: Calcium Flux Assay Using Fluorometric Imaging Plate Reader (FLIPR); type: cell-based; set-up: expressed in transfected cells; host or cells: CHO-K1 previously transfected with G-alpha 16; conditions: CHO-K1 cells with G-alpha 16 and human CRTH2; inhibition of DK-PGD2 ligand-induced Ca2+ flux
T1 sequence (Q9Y5Y4 1-395): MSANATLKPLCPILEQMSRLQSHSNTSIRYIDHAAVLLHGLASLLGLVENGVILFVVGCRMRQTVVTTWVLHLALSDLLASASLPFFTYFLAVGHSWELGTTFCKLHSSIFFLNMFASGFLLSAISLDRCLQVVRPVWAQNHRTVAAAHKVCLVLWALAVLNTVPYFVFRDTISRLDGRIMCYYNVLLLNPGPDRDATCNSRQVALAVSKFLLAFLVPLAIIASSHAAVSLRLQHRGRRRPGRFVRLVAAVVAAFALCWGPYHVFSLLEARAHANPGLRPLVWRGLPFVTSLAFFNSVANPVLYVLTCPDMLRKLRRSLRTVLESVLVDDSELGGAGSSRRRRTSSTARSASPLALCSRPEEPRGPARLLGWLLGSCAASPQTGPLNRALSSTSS
Procedure: CHO-K1 cells previously transfected with G-alpha 16 were subsequently transfected with the human CRTH2 receptor and the neomycin resistance gene. Following selection in 800 μg/mL G418 (geneticin), individual clones were assayed for their receptor expression based on staining with an anti human CRTH2 IgG, followed by assaying for their response to 13,14-dihydro-15-keto Prostaglandin D2 (DK-PDG2) (ligand) in the Ca^2+ Flux assay. Positive clones were then cloned by limiting dilution cloning. The transfected cells were cultured in Ham's F-12 medium supplemented with 10% fetal bovine serum, 2 mM glutamine, 100 U/mL penicillin/100 μg/mL streptomycin, 200 μg/mL hygromycin B, and 800 μg/mL G418 (geneticin). Cells were harvested with trypsin-EDTA (trypsin-ethylenediaminetetraacetic acid) and counted using ViaCount® reagent (from Guava Technologies, Inc. which contains two DNA-binding dyes that enable the reagent user to distinguish between viable and non-viable cells). The cell suspension volume was adjusted to 2.5×10^5 cells/mL with complete growth media. Aliquots of 50 μL were dispensed into BD Falcon™ 384 well black/clear microplates (from BD Biosciences, a division of Becton, Dickinson and Company) and the microplates were placed in a 37° C. CO2 incubator overnight. The following day, the microplates were used in the assay.
Loading Buffer containing dye (from the FLIPR® Calcium 3 Assay Kit from Molecular Devices, a division of MDS Analytical Technologies and MDS Inc.) was prepared by dissolving the contents of one bottle into 200 mL Hank's Balanced Salt Solution containing 20 mM HEPES (4-(2-hydroxyethyl)-1-piperazineethanesulfonic acid) and 2.5 mM probenecid. Growth media was removed from the cell plates and 25 μL of Hank's Balanced Salt Solution (HBSS) containing 20 mM HEPES, 0.05% BSA and 2.5 mM probenecid was added to each well followed by 25 μL of diluted dye using a Multidrop dispenser. The plates were then incubated for 1 hour at 37° C.
During the incubation, test compound plates were prepared by adding 90 μL of HBSS/20 mM HEPES/0.005% BSA buffer to the 2 μL of serial diluted compounds. To prepare serial diluted compounds, 20 mM stocks of compounds were dissolved in 100% DMSO. The compound dilution plate was set up as follows: well #1 received 5 μL of compound plus 10 μL of DMSO. Wells 2-10 received 10 μL of DMSO. 5 μL was mixed and transferred from well #1 into well #2. 1:3 serial dilutions were continued out 10 steps. 2 μl of diluted compound was transferred into duplicate wells of a 384 well “assay plate” and then 90 μL of buffer was added.
After incubation, both the cell and “assay plate” plates were brought to the fluorometric imaging plate reader (FLIPR®) and 20 μL of the diluted compounds were transferred to the cell plates by the FLIPR®. Plates were then incubated for 1 hour at room temperature. After the 1 hour incubation, plates were returned to the FLIPR® and 20 μL of 4.5× concentrated ligand was added to the cell plates. During the assay, fluorescence readings were taken simultaneously from all 384 wells of the cell plate every 1.5 seconds. Five readings were taken to establish a stable baseline, then 20 μL of sample was rapidly (30 μL/sec) and simultaneously added to each well of the cell plate. The fluorescence was continuously monitored before, during and after sample addition for a total elapsed time of 100 seconds. Responses (increase in peak fluorescence) in each well following agonist addition were determined. The initial fluorescence reading from each well, prior to ligand stimulation, was used as a zero baseline value for the data from that well. The responses were expressed as % inhibition of the buffer control. […]

[2] = molecular target: T1, human CRTH2; experiment: Human CRTH2 Receptor Binding Assay (whole cell, [3H]ramatroban competition); set-up: two mammalian expression vectors that harbored human CRTH2 and G-alpha16 cDNAs; expressed in transfected cells; conditions: CHO-K1 cells expressing human CRTH2 and G-alpha16; 20 nM [3H]ramatroban; 1 hour, room temperature
From the text: A whole cell receptor binding assay using [^3H]ramatroban as the competing radioactive ligand was employed to evaluate the compound binding activity to human CRTH2. The radioactive ligand [^3H]ramatroban was synthesized according to Sugimoto et. al. (Eur. J. Pharmacol. 2005, 524, 30-37) to a specific activity of 42 Ci/mmol
A cell line stably expressing human CRTH2 was established by transfecting CHO-K1 cells with two mammalian expression vectors that harbored human CRTH2 and G-alpha16 cDNAs, respectively, using FuGene® 6 transfection reagent (from Roche). Stable clones expressing CRTH2 were selected by staining each clone with BM16 (BD Pharmingen™ from BD Biosciences, a division of Becton, Dickinson and Company), which is a rat monoclonal antibody to human CRTH2. The cells were maintained as monolayer cultures in Ham's F-12 medium containing 10% fetal bovine serum, 100 units/mL penicillin, 100 μg/mL streptomycin, 2 mM glutamine, 0.5 mg/mL G418 (geneticin) for CRTH2, and 0.2 mg/mL hygromycin-B (for G-alpha 16). For whole cell receptor binding assay, the monolayer cells were rinsed once with PBS (phosphate buffered saline), dissociated using ethylenediaminetetraacetate (Versene™ EDTA from Lonza Inc.), and suspended in PBS containing 10 mM MgCl2 and 0.06% BSA (bovine serum albumin) at 1.5×10^6 cells/mL.
The binding reactions (0.2 mL) were performed in 96-well plates at room temperature in PBS containing 1.5×10^5 cells, 10 mM MgCl2, 0.06% BSA, 20 nM [^3H]ramatroban, and test compound at various concentrations. After 1 hour of binding reactions, the cells were harvested on GF™/B filter microplates (microtiter plates with embedded glass fiber from PerkinElmer, Inc.) and washed 5 times with PBS using a Filtermate™ Harvester (a cell harvester that harvests and washes cells from microplates from PerkinElmer, Inc.). The radioactivities bound to the cells were determined using a microplate scintillation counter (TopCount® NXT, from PerkinElmer, Inc.) after adding 50 μL of Microscint™ 20 scintillation fluid (from PerkinElmer, Inc.) to each well of the filter plates. The radioactivity from non-specific binding was determined by replacing compound with 10 μM of 15(R)-15-methyl PGD2 (from Cayman Chemical Company) in the reaction mixtures. The radioactivity bound to the cells in the absence of compound (total binding) was determined by replacing compound with 0.25% of DMSO (dimethyl sulfoxide) in the reaction mixture. Specific binding data were obtained by subtracting the radioactivity of non-specific binding from each binding data.
The IC50 value is defined as the concentration of the tested compound that is required for 50% inhibition of total specific binding. In order to calculate the IC50 value, the percent inhibition data were determined for 7 concentrations for each compound. The percent inhibition for a compound at each concentration was calculated according to the following formula, [1-(specific binding in the presence of compound)/(total specific binding)]×100. The IC50 value was then obtained by fitting the percent inhibition data to a sigmoidal dose-response (4 parameter logistic) model in the XLfit® software Excel add-in program [from ID Business Solutions Ltd., model 205, where F(x)=(A+(B−A)/(1+((C/x)̂D)))].

Compound: O=C(O)COc1cccc2c1CCCCC2NS(=O)(=O)c1ccc(-c2ccccc2)cc1 (stereo not shown) [Example 4, [5-(Biphenyl-4-sulfonylamino)-6,7,8,9-tetrahydro-5H-benzocyclohepten-1-yloxy]-acetic acid]
- IC50 [1]: 255 nM
- IC50 [2]: 33.6 nM

Compound: O=C(O)COc1cccc2c1CCCCC2NS(=O)(=O)c1ccc(-c2cccc(C(F)(F)F)c2)cn1 (stereo not shown) [Example 33, {5-[5-(3-Trifluoromethyl-phenyl)-pyridine-2-sulfonylamino]-6,7,8,9-tetrahydro-5H-benzocyclohepten-1-yloxy}-acetic acid]
- IC50 [1]: 29.2 nM
- IC50 [2]: 178 nM

Compound: CN(C1CCCCc2c(OCC(=O)O)cccc21)S(=O)(=O)c1ccc(-c2cccc(C(F)(F)F)c2)cn1 (stereo not shown) [Example 34, (5-{Methyl-[5-(3-trifluoromethyl-phenyl)-pyridine-2-sulfonyl]-amino}-6,7,8,9-tetrahydro-5H-benzocyclohepten-1-yloxy)-acetic acid]
- IC50 [1]: 4310 nM
- IC50 [2]: 457 nM

Compound: O=C(O)COc1cccc2c1CCCCC2NS(=O)(=O)c1ccc(-c2ccc(O)cc2)cc1 (stereo not shown) [Example 23, [5-(4′-Hydroxy-biphenyl-4-sulfonylamino)-6,7,8,9-tetrahydro-5H-benzocyclohepten-1-yloxy]-acetic acid]
- IC50 [1]: 42.1 nM
- IC50 [2]: 103 nM

Compound: O=C(O)COc1cccc2c1CCCCC2NS(=O)(=O)c1cc(Br)cc(C(F)(F)F)c1 (stereo not shown) [Example 8, [5-(3-Bromo-5-trifluoromethyl-benzenesulfonylamino)-6,7,8,9-tetrahydro-5H-benzocyclohepten-1-yloxy]-acetic acid]
- IC50 [1]: 36.6 nM
- IC50 [2]: 47 nM

Compound: CC(C)c1cccc(-c2ccc(S(=O)(=O)NC3CCCCc4c(OCC(=O)O)cccc43)nc2)c1 (stereo not shown) [Example 31, {5-[5-(3-Isopropyl-phenyl)-pyridine-2-sulfonylamino]-6,7,8,9-tetrahydro-5H-benzocyclohepten-1-yloxy}-acetic acid]
- IC50 [1]: 476 nM
- IC50 [2]: 26.7 nM

Compound: CC(C)c1cccc(-c2cccc(S(=O)(=O)NC3CCCCc4c(OCC(=O)O)cccc43)c2)c1 (stereo not shown) [Example 41, [5-(3′-Isopropyl-biphenyl-3-sulfonylamino)-6,7,8,9-tetrahydro-5H-benzocyclohepten-1-yloxy]-acetic acid]
- IC50 [1]: > 5000 nM
- IC50 [2]: 226 nM

Compound: CS(=O)(=O)c1cccc(-c2ccc(S(=O)(=O)NC3CCCCc4c(OCC(=O)O)cccc43)cc2)c1 (stereo not shown) [Example 29, [5-(3′-Methanesulfonyl-biphenyl-4-sulfonylamino)-6,7,8,9-tetrahydro-5H-benzocyclohepten-1-yloxy]-acetic acid]
- IC50 [1]: 60.6 nM
- IC50 [2]: 9.1 nM

Compound: Cc1cc(-c2ccc(S(=O)(=O)NC3CCCCc4c(OCC(=O)O)cccc43)nc2)cc(C(C)(C)C)c1 (stereo not shown) [Example 35, {5-[5-(3-tert-Butyl-5-methyl-phenyl)-pyridine-2-sulfonylamino]-6,7,8,9-tetrahydro-5H-benzocyclohepten-1-yloxy}-acetic acid]
- IC50 [1]: 140 nM
- IC50 [2]: 17.9 nM

Compound: CN(C1CCCCc2c(OCC(=O)O)cccc21)S(=O)(=O)c1cc(Br)cc(C(F)(F)F)c1 (stereo not shown) [Example 9, {5-[(3-Bromo-5-trifluoromethyl-benzenesulfonyl)-methyl-amino]-6,7,8,9-tetrahydro-5H-benzocyclohepten-1-yloxy}-acetic acid]
- IC50 [1]: 6.1 nM
- IC50 [2]: 57.4 nM

Compound: Cc1cc(-c2ccc(S(=O)(=O)N(C)C3CCCCc4c(OCC(=O)O)cccc43)nc2)cc(C(C)(C)C)c1 (stereo not shown) [Example 36, (5-{[5-(3-tert-Butyl-5-methyl-phenyl)-pyridine-2-sulfonyl]-methyl-amino}-6,7,8,9-tetrahydro-5H-benzocyclohepten-1-yloxy)-acetic acid]
- IC50 [1]: 784 nM
- IC50 [2]: 164 nM

Compound: O=C(O)COc1cccc2c1CCCCC2NS(=O)(=O)c1cc(Cl)cc(Cl)c1 (stereo not shown) [Example 2, [5-(3,5-Dichloro-benzenesulfonylamino)-6,7,8,9-tetrahydro-5H-benzocyclohepten-1-yloxy]-acetic acid]
- IC50 [1]: 340 nM
- IC50 [2]: 58.4 nM

Compound: O=C(O)COc1cccc2c1CCCCC2NS(=O)(=O)c1ccc(-c2cccc(CCO)c2)cn1 (stereo not shown) [Example 37, (5-{5-[3-(2-Hydroxy-ethyl)-phenyl]-pyridine-2-sulfonylamino}-6,7,8,9-tetrahydro-5H-benzocyclohepten-1-yloxy)-acetic acid]
- IC50 [1]: 214 nM
- IC50 [2]: 17 nM

Compound: CS(=O)(=O)c1cccc(S(=O)(=O)NC2CCCCc3c(OCC(=O)O)cccc32)c1 (stereo not shown) [Example 5, [5-(3-Methanesulfonyl-benzenesulfonylamino)-6,7,8,9-tetrahydro-5H-benzocyclohepten-1-yloxy]-acetic acid]
- IC50 [1]: 581 nM
- IC50 [2]: 952 nM
